ChEMBL document CHEMBL3525954, “Evaluation of hepatic disposition of paroxetine using sandwich-cultured rat and human hepatocytes” (Drug Metab Dispos, 2013)

Legend:
[1] = Drug metabolism in Sprague-Dawley rat hepatocytes assessed as parent compound level at 1 uM by radio-chromatogram analysis; format: ADME, cell-based, Hepatocyte; conditions: TDE = time-dependent effect
[2] = Drug metabolism in 4 days of sandwich-cultured Sprague-Dawley rat hepatocytes assessed as parent compound level at 1 uM after 24 hrs by radio-chromatogram analysis; format: ADME, cell-based, Hepatocyte; conditions: read-out: Drug metabolism
[3] = Drug metabolism in 4 days of sandwich-cultured human hepatocytes assessed as parent compound level at 1 uM after 24 hrs by radio-chromatogram analysis; format: ADME, cell-based, Hepatocyte; conditions: read-out: Drug metabolism
[4] = Drug metabolism in Sprague-Dawley rat hepatocytes assessed as 4-(((4R)-4-(4-fluorophenyl)piperidin-3-yl)methoxy)-2-methoxyphenyl hydrogen sulfate level at 1 uM by radio-chromatogram analysis; format: ADME, cell-based, Hepatocyte; conditions: TDE = time-dependent effect
[5] = Drug metabolism in human hepatocytes assessed as parent compound level at 1 uM after 3 hrs by radio-chromatogram analysis; format: ADME, cell-based, Hepatocyte; conditions: read-out: Drug metabolism
[6] = Drug metabolism in Sprague-Dawley rat hepatocytes assessed as parent compound level at 1 uM after 3 hrs by radio-chromatogram analysis; format: ADME, cell-based, Hepatocyte; conditions: read-out: Drug metabolism
[7] = Drug metabolism in Sprague-Dawley rat hepatocytes assessed as (2S,3R,4S,5S,6R)-2-(4-(((4R)-4-(4-fluorophenyl)piperidin-3-yl)methoxy)-2-methoxyphenoxy)-6-(hydroxymethyl)tetrahydro-2H-pyran-3,4,5-triol level at 1 uM by radio-chromatogram analysis; format: ADME, cell-based, Hepatocyte; conditions: TDE = time-dependent effect
[8] = Drug metabolism in 4 days of sandwich-cultured Sprague-Dawley rat hepatocytes assessed as (2S,3R,4S,5S,6R)-2-(4-(((4R)-4-(4-fluorophenyl)piperidin-3-yl)methoxy)-2-methoxyphenoxy)-6-(hydroxymethyl)tetrahydro-2H-pyran-3,4,5-triol level at 1 uM by radio-chromatogram analysis; format: ADME, cell-based, Hepatocyte; conditions: 96 h, TDE = time-dependent effect
[9] = Drug metabolism in 4 days of sandwich-cultured Sprague-Dawley rat hepatocytes assessed as parent compound level at 1 uM by radio-chromatogram analysis; format: ADME, cell-based, Hepatocyte; conditions: 96 h, TDE = time-dependent effect
[10] = Drug metabolism in 4 days of sandwich-cultured Sprague-Dawley rat hepatocytes assessed as 4-(((4R)-4-(4-fluorophenyl)piperidin-3-yl)methoxy)-2-methoxyphenyl hydrogen sulfate level at 1 uM by radio-chromatogram analysis; format: ADME, cell-based, Hepatocyte; conditions: 96 h, TDE = time-dependent effect
[11] = Drug metabolism in 4 days of sandwich-cultured Sprague-Dawley rat hepatocytes assessed as biliary excretion index treated with at 1 uM of paroxetine after 0.025 to 24 hrs by radio-chromatogram analysis; format: ADME, tissue-based, Bile, Hepatocyte; conditions: 96 h
[12] = Drug metabolism in Sprague-Dawley rat hepatocytes treated with at 1 uM of paroxetine by radio-chromatogram analysis; format: ADME, cell-based, Hepatocyte; conditions: TDE = time-dependent effect
[13] = Drug metabolism in 4 days of sandwich-cultured human hepatocytes assessed as biliary excretion index treated with at 1 uM of paroxetine after 0.025 to 24 hrs by radio-chromatogram analysis; format: ADME, tissue-based, Bile, Hepatocyte; conditions: 96 h
[14] = Drug metabolism in 4 days of sandwich-cultured Sprague-Dawley rat hepatocytes treated with at 1 uM of paroxetine by radio-chromatogram analysis; format: ADME, cell-based, Hepatocyte; conditions: 96 h, TDE = time-dependent effect
[15] = Drug metabolism in human hepatocytes treated with at 1 uM of paroxetine after 3 hrs by radio-chromatogram analysis; format: ADME, cell-based, Hepatocyte
[16] = Drug uptake in rat liver […] assessed as BCRP-mediated drug transport at 0.5 uM up to 2 mins by liquid scintillation counting in presence of ATP; format: ADME, subcellular
[17] = Drug metabolism in 4 days of sandwich-cultured human hepatocytes treated with at 1 uM of paroxetine after 24 hrs by radio-chromatogram analysis; format: ADME, cell-based, Hepatocyte; conditions: 96 h

Structure (SMILES) | Drug metabolism [1] | remaining at 96 h, 1 µM [2] [%] | remaining at 96 h, 1 µM [3] [%] | Drug metabolism [4] | remaining at 3 h, 1 µM [5] [%] | remaining at 3 h, 1 µM [6] [%] | Drug metabolism [7] | Drug metabolism [8] | Drug metabolism [9] | Drug metabolism [10] | Drug metabolism [11] | Drug metabolism [12] | Drug metabolism [13] | Drug metabolism [14] | Drug metabolism [15] | Drug uptake [16] | Drug metabolism [17]
Fc1ccc([C@@H]2CCNC[C@H]2COc2ccc3c(c2)OCO3)cc1.O=C(O)/C=C\C(=O)O | tde | 36.6 | 52.8 | tde | 71.4 | 29.7 | tde | tde | tde | tde | – | – | – | – | – | – | –
COc1cc(OC[C@@H]2CNCC[C@H]2c2ccc(F)cc2)ccc1O[C@@H]1O[C@H](C(=O)O)[C@@H](O)[C@H](O)[C@H]1O | – | – | – | – | – | – | – | – | – | – | metabolite_detected | tde | metabolite_detected | tde | metabolite_detected | Active | metabolite_detected
COc1cc(OC[C@@H]2CNCC[C@H]2c2ccc(F)cc2)ccc1OS(=O)(=O)O | – | – | – | – | – | – | – | – | – | – | metabolite_detected | tde | metabolite_detected | tde | metabolite_detected | Not Active | metabolite_detected
